Data taken from patent publication US20260199426A1, “CYCLIC LIPOPEPTIDE ANTIBIOTIC COMPOUNDS FOR USE IN THE TREATMENT OF PROTEIN AGGREGATION DISEASE” (DEUTSCHES ZENTRUM FÜR NEURODEGENERATIVE ERKRANKUNGEN E. V., priority 2022, published 2026).
*1 amine or outer side, *2 acyl side, *3 side chain or, on linkers, in order; H or OH if unused. Where a SMILES comes first, the peptide text is derived from it. Bridges are numbered along the chain shown (N, C = ends). [ ]: non-standard residue; d: D form. The star is where a group is joined. ξ: configuration not given here. X2 = O=C(C(N[*:1])c1ccc(OC2OC(CO)C(O)C(O)C2OC2OC(CO)C(O)C(O)C2O)cc1)[*:2]; Octa(2Z,4E)dienoyl(7-Me) = CC(C)C/C=C/C=C\C(=O)*; ξPhg(3-Cl-4-OH) = NC(C(=O)O)c1ccc(O)c(Cl)c1; X1 = NC(=O)C(O[*:3])C(N[*:1])C(=O)[*:2]; Hpg = N[CH](C(=O)O)c1ccc(O)cc1; Orn = NCCC[CH](N)C(=O)O

System: PS19 mouse model of tauopathy (human MAPT P301S)
Test: Behavior, neuropathology and survival of PS19 mice
Assay type: in vivo
Settings: 50, 100, and 150 mg/kg in feed, approximately 8 months

SMILES: CC(C)C/C=C/C=C\C(=O)NC(CC(N)=O)C(=O)NC1C(=O)NC(c2ccc(O)cc2)C(=O)NC(CCCN)C(=O)NC(C(C)O)C(=O)NC(c2ccc(O)cc2)C(=O)NC(c2ccc(O)cc2)C(=O)NC(C(C)O)C(=O)NC(Cc2ccccc2)C(=O)NC(CCCN)C(=O)NC(c2ccc(OC3OC(CO)C(O)C(O)C3OC3OC(CO)C(O)C(O)C3O)cc2)C(=O)NC(C(C)O)C(=O)NC(c2ccc(O)cc2)C(=O)NCC(=O)NC(CC(C)C)C(=O)NC(C)C(=O)NC(c2ccc(O)c(Cl)c2)C(=O)OC1C(N)=O (centres unmarked) [Ramoplanin A2] ({Octa(2Z,4E)dienoyl(7-Me)}-N[X1][Hpg][Orn]T[Hpg][Hpg]TF[Orn][X2]T[Hpg]GLA[ξPhg(3-Cl-4-OH)]; ester 2-C; configuration not given here)
- cognition, neuropathology, and survival of PS19 mice: positive effect
- tau aggregation in PS19 mice: inhibits tau aggregation
